Data set [1] has as its system Salmonella typhimurium tester strains TA98, TA100, TA1535, and TA1537, and Escherichia coli strain WP2 uvrA (pKM101). Briefly: Preincubation Ames test, five tester strains. It is filed as cell-based. The conditions noted are these: G:C target: TA98, TA100, TA1535, TA1537; A:T target: WP2 uvrA (pKM101). In general terms: The Ames test detects mutagens through reverse mutation in bacteria.

In data set [2] the test system is Salmonella typhimurium TA1535. Briefly: Preincubation Ames test, strain TA1535. Conditions: for Direct-acting mutagenicity in TA1535: no exogenous metabolic activation (no S9); for S9-mediated mutagenicity in TA1535: with S9 activation. It is filed as cell-based.
Data set [3] relates to Salmonella typhimurium TA100. Description: Preincubation Ames test, strain TA100. Conditions: for S9-mediated mutagenicity in TA100: with S9 activation. The class given is cell-based.
The next data set deals with Drosophila. The conditions noted are these: cited from earlier work.
The next data set has as its system Ames tester strains. The conditions noted are these: cited from earlier work.
The conditions of data set [4]: published by FDA as of September 4, 2024, ref FDA, 2024a; cited from earlier work.
For data set [5] the following is noted: PC1 most potent, PC5 least potent; ref FDA, 2024a; cited from earlier work.
The subject of data set [6] is CHO, V79, L5178Y/Tk+/−, TK6, HepaRG cells. The conditions noted are these: cited from earlier work.
Another data set deals with yeast. The conditions noted are these: ref Larimer et al., 1980, cited from earlier work.
The next data set deals with E. coli WU3610. Conditions: ref Elespuru and Lijinsky, 1976; cited from earlier work.
Data set [7] is described as follows: Solubility in Ames test vehicles. It is filed as physicochemical.
Where [8] appears, read: listed as 1-Methyl-4-nitrosopiperizine.
[9] abbreviates: listed as 1-methyl-4-nitrosopiperizine.

The text below walks through data of article PMC12395388 (Regulatory toxicology and pharmacology : RTP, 2024).

Structures are written as SMILES.

In the case of `CN1CCN(N=O)CC1` [SM-4, 1-Methyl-4-nitrosopiperazine], the “Specificity for G:C or A:T target tester strains” value in data set [1] was “positive only in G:C detecting strains”. Besides, the “Direct-acting mutagenicity in TA1535” value in data set [2] was “a Equivocal direct-acting mutagen in TA1535”; in [2] (setting [8]), “weakly positive direct-acting mutagen in two of four assays”; in [2] (setting [9]), “classified as ‘equivocal’ as a direct-acting mutagen”. Further, the “Effectiveness of time of preincubation for most effective S9” value in [2] (strain TA1535, 30 vs 60 min) stood at 60min = 30min; in [3] (strain TA100, 30 vs 60 min), 60min = 30min. The “S9-mediated mutagenicity in TA1535” value in data set [2] (setting [8]) is recorded as “strong S9-mediated mutagen”; in data set [2] (setting [9]), “strongly positive”. In addition, the figures for the “S9-mediated mutagenicity in TA100” value in [3] (setting [8]) and in data set [3] (setting [9]) were “strong S9-mediated mutagen” and “strongly positive”, respectively. Moreover, the “Mutagenicity in Drosophila” value in the data set on Drosophila (ref Nix et al., 1980) is “Mutagenic in yeast, Drosophila, V79 cells, host-mediated assay”. In the data set on Drosophila (ref Vogel and Nivard, 1993), the “Recombination in Drosophila” value was “recombinogen in Drosophila”. Moreover, the “Ames response (all S9-mediated except where noted)” value with Ames tester strains (published/posted results, ref representative Ames references of Table 2) is on record as “Positive”. Moreover, in the data set with Ames tester strains (ref Sabadie et al., 1980), the “Ames response with human liver S9” value was “Ames positive with human liver S9”. Moreover, the AI limit in [4] was 400 ng/day. Moreover, in data set [5], the “CPCA Potency Category (PC)” value is given as “PC3”. In addition, the “Mutagenicity/genotoxicity in mammalian cells in vitro” value in [6] (cell lines as named in the value, ref as given in Table 2 Notes) is reported as “Mutagenic in yeast, Drosophila, V79 cells, host-mediated assay”. The “Direct-acting mutagenicity in V79 cells” value in [6] (only summary results provided, ref Kuroki et al., 1977) was “does not appear to be a direct-acting mutagen”. In addition, the “Direct-acting mutagenicity in yeast” value with yeast (only summary results provided) was “does not appear to be a direct-acting mutagen”. Also, the Mutagenicity/genotoxicity in yeast result with yeast (Mehta and Von Borstel, 1984) was “Mutagenic in yeast, Drosophila, V79 cells, host-mediated assay”. Further, in the data set with E. coli WU3610, the “Mutagenicity in E. coli WU3610” value is “not mutagenic in E. coli WU3610”.
Take `O=NN1CCN(c2cc3c(cc2F)c(=O)c(C(=O)O)cn3C2CC2)CC1` [NDSRI-24, 1-Cyclopropyl-6-fluoro-7-(4-nitrosopiperazin-1-yl)-4-oxoquinoline-3-carboxylic acid]: the “Solubility in test vehicles” value in data set [7] is recorded as “poorly soluble in all vehicles”.
